Measurements published in US10953017B2, “Treatment of neurodegenerative diseases, causation of memory enhancement, and assay for screening compounds for such” (Southern Research Institute, priority 2009, dated 2021).
pIC50: −log10 of the molar value.

Assays:
[1] = system: NF-kB; experiment: NF-kB promoter-driven firefly luciferase reporter assay in SH-5YSY clone C1; type: cell-based, human; conditions: for pIC50: Homo sapiens, SH-5YSY clone C1, NF-kB luciferase reporter
From the text: SH-5YSY human neuroblastoma cell line was obtained from the American Tissue Culture collection (ATCC). The cells were expanded and frozen for long term storage. A commercially available expression vector containing the NF-kB promoter enhancer region driving the firefly lucipherase gene expression (see FIG. 1) was obtained. This plasmid was designed for transient expression studies and was devoid of any antibiotic-resistance conferring gene. A second plasmid containing the gene conferring resistance to blasticidin was also used. A dual transfection approach to obtain stable cell lines was employed. Prior to transfection, blasticidin sensitivity of the cell line was performed (See FIG. 2). It was determined that SH-5YSY cells were sensitive to the antibiotic toxicity and that 3 μg/ml caused total cell death (FIG. 2). After expanding and purifying adequate quantities of these plasmids, SH-5YSY cells were co-transfected with the above two plasmids and the clonal selection of the transfected cells in the presence of blasticidin proceeded. Several clones were identified that were both resistant to blasticidin and expressed the firefly luciferase upon exposure to TNF-α, □ a known inducer of NF-kB (See FIG. 3). After several assessments, a clone, C1, which expressed high levels of stimulated-luciferase expression and maintained it over time (see FIG. 3) was identified. To date, this clone has been in culture for over 37 passages without significant decline of the gene of interest induction. The optimal conditions for this assay to be carried out in a high throughput setting has been determined. Initially, the optimal number of cells needed was assessed. In FIG. 4 it is shown the effect of using a range of cells from 10,000 to 40,000. […] The assays has have been implemented using a similar cell density for HTS analysis without excessive problems. This cell line allows growing large scale quantities of cells fairly easily.
Successively, the optimal time of incubation and media requirements were assessed. […] These conditions are relatively affordable in HTS settings. Finally, since during robotic handling the plates containing the cells spend a significant amount of time outside the incubator and since phenol red could interfere with the reagents in the luciferase activity assay kit, the effect of using a phenol red free HEPES-buffered media was assessed. As shown in FIG. 5 there is a very little effect of phenol red free, HEPES-buffered media on the assay response and dynamic range. Therefore, the assessment is that it is possible to run this assay using these more forgiving media. Since the compounds contained in the most commonly used libraries are dissolved in DMSO, the effect of DMSO on both luciferase expression in response to TNF-α and C1 clone survival during assay simulations was characterized. The effect of increasing concentration of DMSO ranging from 0.05% through 0.5% on TNF-α induction of luciferase (black line and black scale) is shown in FIG. 6. Also the effect of DMSO on baseline expression of luciferase in the C1 clone is shown in FIG. 6 (gray line and gray scale). In FIG. 7, it is shown the effect of DMSO on cell survival in the same conditions described in FIG. 6. In these experimental settings cells, settled for 24 hours, and then were incubated for an additional 24 hours with DMSO at the indicated concentrations. At the end of the incubation phase cell viability was assessed using the commercially available kit Cell Titer Glo™ following the manufacturer instructions ([…]). […] Finally, the effect of different concentrations of TNF-α was studied in the clone C1.
Essential to development of an assay for high throughput screening is the assessment of Z′ values. This statistical parameter assesses the possibility that data obtained in a single well are statistically significant. In general, assays can generate negative and positive Z′ values. Negative Z′ values indicate a very unpredictable assay. […]

[2] = system: I-kB and NF-kB p65; experiment: Effect on I-kB and NF-kB p65 in cytoplasm and nucleus (FIG. 14); type: cell-based; conditions: FIG. 14 A
From the text: A) I-kB was not affected by CMPD exposure while it was reduced by TNF. B) CMPDs increased cytoplasmic NF-kB p65. C) CMPDs increased nuclear localization of NF-kB p65. D) The sum of CMPD effects on P65 in the cytoplasm and in the nucleus.

[3] = system: SH-5YSY cells; experiment: Blasticidin sensitivity of SH-5YSY cells; type: cell-based, human
From the text: SH-5YSY human neuroblastoma cell line was obtained from the American Tissue Culture collection (ATCC). The cells were expanded and frozen for long term storage. A commercially available expression vector containing the NF-kB promoter enhancer region driving the firefly lucipherase gene expression (see FIG. 1) was obtained. This plasmid was designed for transient expression studies and was devoid of any antibiotic-resistance conferring gene. A second plasmid containing the gene conferring resistance to blasticidin was also used. A dual transfection approach to obtain stable cell lines was employed. Prior to transfection, blasticidin sensitivity of the cell line was performed (See FIG. 2). It was determined that SH-5YSY cells were sensitive to the antibiotic toxicity and that 3 μg/ml caused total cell death (FIG. 2). After expanding and purifying adequate quantities of these plasmids, SH-5YSY cells were co-transfected with the above two plasmids and the clonal selection of the transfected cells in the presence of blasticidin proceeded. […] The optimal conditions for this assay to be carried out in a high throughput setting has been determined. Initially, the optimal number of cells needed was assessed. […] This cell line allows growing large scale quantities of cells fairly easily.

Molecule | pIC50 [1] | further results
Oc1ccc2ccccc2c1C1NN=C(c2ccccc2)S1 (stereo not drawn) [AB00093094] | 6.10 | –
CCC(=O)NC(c1ccccc1Cl)c1ccc2cccnc2c1O (stereo not drawn) [AB00100961] | 5.40 | –
COc1ccc(-c2cn3c4c(sc3n2)CCCC4)cc1 [AB00315863] | 6.19 | –
TNF-α [reference compound] | – | luciferase expression in C1 cells ([1]; 0.625 up to 40 ng/ml): linear increase; I-kB [2]: reduced
CC(C)Oc1cc(O)c2c(=O)c(-c3ccc(O)cc3)coc2c1 [AB00431689] | 5.34 | –
Cc1nnc(SCC(=O)Nc2ccc(-c3nc4ccccc4s3)cc2)s1 [AB00317535] | 6.48 | –
S=C(c1ccc(-c2ccc(Cl)c(Cl)c2)o1)N1CCOCC1 [AB00091724] | 5.29 | –
O=C(CCN1C(=O)/C(=C\C=C\c2ccccc2)SC1=S)Nc1cc(Cl)ccc1O [AB00120582] | 3.84 | –
c1ccc(CSCc2cn3ccsc3n2)cc1 [AB00421150] | 4.90 | –
Cc1ccc(-c2csc(Nc3ccccc3)n2)cc1 [AB00079697] | 6.85 | –
COc1ccc(C(=O)/C=C(\C)Nc2ccccc2O)cc1 [AB00102118] | 6.63 | –
Cc1ccc2nc(-c3ccc(NC(=O)CCN4C(=O)c5ccccc5C4=O)cc3)sc2c1 [AB00547004] | 6.81 | –
O=C(O)c1ccc(-c2nnc(-c3ccccc3Cl)o2)cc1 [AB00101507] | 6.47 | –
COc1ccc(-c2cc(-c3ccccc3O)[nH]n2)cc1 [AB00461411] | 6.01 | –
O=C1/C(=C\c2ccco2)Sc2ccccc21 [AB00083422] | 2.44 | –
COC(=O)c1sc2nc(-c3ccccc3)ccc2c1N [AB00079098] | 7.17 | –
O=C1/C(=C\c2ccc(O)cc2)Sc2ccccc21 [AB00083765] | 5.43 | –
COc1ccc(-c2coc3cc(OC)cc(O)c3c2=O)cc1 [AB00052939] | 5.76 | –
Fc1ccc(-c2cn3ccsc3n2)cc1 [AB00093742] | 6.42 | –
C=CCNc1nc(-c2cc3ccccc3o2)cs1 [AB00546606] | 6.22 | –
CCC(=O)NC(c1cccc([N+](=O)[O-])c1)c1ccc2cccnc2c1O (stereo not drawn) [AB00101133] | 5.43 | –
Clc1ccc(-c2nnc(-c3ccccc3Cl)o2)cc1 [AB00084000] | 7.21 | –

Molecule | pIC50 [1] | further results
CC(C)(C)c1ccc(-c2csc(N)n2)cc1 [AB00095939] | 6.88 | –
COc1ccccc1-c1nc(-c2ccccc2Cl)no1 [AB00093511] | 7.10 | –
c1ccc2oc(-c3csc(N4CCOCC4)n3)cc2c1 [AB00613917] | 6.02 | –
O=C(Nc1ccc2c(c1)OCCO2)Nc1ccc2c(c1)OCO2 [AB00616088] | 6.94 | –
Cc1ccc(/C=C2\Sc3ccccc3C2=O)s1 [AB00534272] | 5.22 | –
C=C(C)CN(CC)C(=O)Nc1ccc(-c2ccccc2)cc1 [AB00022459] | 7.19 | –
COc1ccc(NC(=O)N2CCc3ccccc32)cc1 [AB00329861] | 6.16 | –
Cc1ccccc1-c1cc(-c2ccccc2O)n[nH]1 [AB00101695] | 6.24 | –
Cc1ccc(-c2csc(Nc3ccc(C(=O)O)cc3)n2)cc1C [AB00097765] | 7.21 | –
Clc1ccc(C2NN=C(c3ccccc3)S2)cc1 (stereo not drawn) [AB00093093] | 5.39 | –
CN(Cc1cnc2nc(N)nc(N)c2c1)c1ccc(C(=O)N[C@@H](CCC(=O)O)C(=O)O)cc1 [AB00171904] | 6.80 | –
Nc1nc(-c2ccc(-c3ccccc3)cc2)cs1 [AB00074195] | 6.91 | –
Brc1ccc(-c2cn3ccccc3n2)s1 [AB00528862] | 7.03 | –
COc1cccc(-c2nnc(-c3ccccc3NS(=O)(=O)c3ccc(NC(C)=O)cc3)o2)c1 [AB00027137] | 6.89 | –
Cc1ccc2nc(-c3ccc(NC(=O)COC(=O)c4cncc(Br)c4)cc3)sc2c1 [AB00542926] | 6.41 | –
CN(CC[C@H](N)CC(=O)N[C@H]1C=C[C@H](n2ccc(N)nc2=O)O[C@@H]1C(=O)O)C(=N)N [blasticidin] | – | concentration causing total cell death [3]: 3 µg/mL
Clc1c(CSc2nc3ccccc3o2)nc2sccn12 [AB00428616] | 5.62 | –
O=c1[nH]c(/C=C/c2ccc(O)cc2)nc2ccccc12 [AB00097657] | 7.19 | –
Oc1ccccc1C1NN=C(c2ccccc2)S1 (stereo not drawn) [AB00092734] | 6.42 | –
COc1cc(C)c(S(=O)(=O)Nc2ccc(-c3nc4ccc(C)cc4s3)cc2)c(C)c1C [AB00012207] | 6.81 | –
Cc1ccc2nc(-c3ccc(NS(=O)(=O)c4ccccc4OC(F)(F)F)cc3)sc2c1 [AB00003451] | 6.81 | –
CCC(=O)NC(c1ccc(C)cc1)c1ccc2cccnc2c1O (stereo not drawn) [AB00101018] | 5.50 | –

Molecule | pIC50 [1] | further results
Cc1ccc(/C=C2/SC(=S)N(CCC(=O)Nc3ccc(O)cc3)C2=O)cc1 [AB00089877] | 2.88 | –
COc1ccc(-c2csc(Nc3ccc(N(C)C)cc3)n2)cc1 [AB00101290] | 6.84 | –
Cc1ccc(NC(=O)N2CCc3ccccc32)cc1C [AB00616066] | 6.44 | –
O=C(Nc1ccc(F)cc1)N1CCc2ccccc21 [AB00105762] | 6.74 | –
O=C(/C=C/Nc1cc(Cl)ccc1O)c1ccccc1 [AB00087011] | 6.67 | –
CC(=O)CSc1nc2cc3c(cc2cc1C#N)OCCO3 [AB00614173] | 6.98 | –
S=C(c1ccc(-c2cccc(Cl)c2)o1)N1CCOCC1 [AB00092117] | 5.47 | –
COc1cc(NCc2cnc3nc(N)nc(N)c3c2C)cc(C(F)(F)F)c1 [AB00443206] | 6.91 | –
Oc1ccccc1-c1cc(-c2ccc3c(c2)OCCO3)[nH]n1 [AB00440877] | 6.19 | –
Fc1ccc(-c2nc3n(n2)Cc2ccccc2-3)cc1 [AB00371839] | 6.90 | –
O=c1c(-c2ccc3c(c2)OCCO3)coc2cc(O)cc(O)c12 [AB00390364] | 4.64 | –
CCOC(=O)CC[C@H](NC(=O)c1ccc(NCc2cnc3nc(N)nc(N)c3c2C)cc1)C(=O)OCC [AB00174102] | 6.46 | –
COc1ccccc1C1CCN(C(=O)NCCc2ccccc2)CC1 [AB00013805] | 7.17 | –
COc1ccc(-c2noc(-c3cccc(OC)c3)n2)cc1 [AB00093467] | 7.09 | –
S=C(c1ccc(-c2ccc(Cl)cc2)o1)N1CCOCC1 [AB00092070] | 6.11 | –
COCCNc1nc(-c2cc3ccccc3o2)cs1 [AB00546194] | 5.86 | –
COc1ccccc1-c1nc(-c2ccc(C)cc2)no1 [AB00093558] | 7.00 | –
O=C(CCN1C(=O)/C(=C\C=C\c2ccccc2)SC1=S)Nc1ccc(C(=O)O)cc1 [AB00121550] | 6.26 | –
Brc1cccc(-c2cn3ccsc3n2)c1 [AB00093745] | 6.60 | –
Cc1ccc2nc(-c3ccc(NS(=O)(=O)c4ccc(F)c(Cl)c4)cc3)sc2c1 [AB00011625] | 6.95 | –
O=C(/C=C\Nc1cc(Cl)ccc1O)c1ccc2c(c1)OCO2 [AB00101723] | 6.67 | –
